Laboratory results taken from patent publication US20190105367A1, “ANTIMICROBIAL 4-OXOQUINOLIZINES” (Emergent Product Development Gaithersburg Inc., priority 2011, published 2019).

What was measured:
[1] = tested on: A. baumannii ATCC 19606; assay: MIC without and with sub-inhibitory polymyxin B (Example 4); type: cell-based, Acinetobacter baumannii
[2] = tested on: A. baumannii A14; assay: as above; type: cell-based, Acinetobacter baumannii; conditions: 1st experiment
[3] = tested on: A. baumannii A401; assay: as above; type: cell-based, Acinetobacter baumannii; conditions: A baumannii A 401; for MIC: 2nd experiment
[4] = tested on: A. baumannii A390; assay: as above; type: cell-based, Acinetobacter baumannii; conditions: A. baumannii A390
[5] = tested on: A. baumannii A401; assay: Preliminary MBC without and with sub-inhibitory polymyxin B (Example 4); type: cell-based, Acinetobacter baumannii; conditions: for MBC: 2nd experiment
[6] = tested on: A. baumannii J2; assay: as above; type: cell-based, Acinetobacter baumannii; conditions: A. baumannii J2, preliminary MBC; for MBC: 2nd experiment
[7] = tested on: A. baumannii NCTC 13301; assay: MIC without and with sub-inhibitory polymyxin B (Example 4); type: cell-based, Acinetobacter baumannii; conditions: A. baumannii NCTC 13301, 2nd experiment
[8] = tested on: A. baumannii A14; assay: Preliminary MBC without and with sub-inhibitory polymyxin B (Example 4); type: cell-based, Acinetobacter baumannii; conditions: A. baumannii A14, preliminary MBC, 1st experiment
[9] = tested on: A. baumannii A472; assay: MIC without and with sub-inhibitory polymyxin B (Example 4); type: cell-based, Acinetobacter baumannii; conditions: A. baumannii A472; for MIC: 2nd experiment
[10] = tested on: A. baumannii A472; assay: Preliminary MBC without and with sub-inhibitory polymyxin B (Example 4); type: cell-based, Acinetobacter baumannii; conditions: A. baumannii A472, preliminary MBC; for MBC: 2nd experiment
[11] = tested on: strains of A. baumannii and one strain of Acinetobacter sp.; assay: MIC with sub-inhibitory concentrations (0.25x MIC) of polymyxin B, panel of Acinetobacter strains (Example 4); type: cell-based
[12] = tested on: A. baumannii A14; assay: MIC without and with sub-inhibitory polymyxin B (Example 4); type: cell-based, Acinetobacter baumannii; conditions: A. baumannii A14; +0.06 μg/ml PB; 2nd experiment
[13] = A. baumannii ATCC 19606, +0.06 μg/ml PB, 2nd experiment
[14] = without polymyxin B, 1st experiment
[15] = +[…] polymyxin B, 1st experiment

In the case of “8-[(3S)-3-aminocyclopentyl]-1- cyclopropyl-7-fluoro-9-methyl- 4-oxo-quinolizine-3-carboxylic acid [Compound 10, reference compound]”, the MIC [1, 13] was 0.06 µg/mL, the “MIC without PB/MIC + PB” value [1, 13] was 2 and the “MIC +0.06 μg/ml PB” value ([1]; A. baumannii ATCC 19606, +0.06 μg/ml polymyxin B, 1st experiment) was 0.03 µg/mL. The “MIC without PB/MIC + PB” value ([1]; A. baumannii ATCC 19606, ratio, PB 0.06 μg/ml, 1st experiment) was 256, the MIC ([1]; A. baumannii ATCC 19606, without PB, 2nd experiment) was 0.125 µg/mL and the “MIC” value ([1]; A. baumannii ATCC 19606, without PB, value in parentheses marked *, mark not explained, 2nd experiment) was 0.06 µg/mL. The “Activity against the A. baumannii ATCC 19606 strain” value ([1]; with and without sub-inhibitory concentrations of polymyxin B) was “potent activities”, the “MIC +0.06 μg/ml PB” value ([2]; +0.06 μg/ml polymyxin B) was 8.00 µg/mL and the “MIC without PB/MIC + PB” value ([2]; ratio, PB 0.06 μg/ml) was 1. For the same substance, the “MIC without PB” value ([2]; without polymyxin B) was 8 µg/mL, the MIC ([3]; +0.06 μg/ml PB) was 1 µg/mL and the “MIC +0.06 μg/ml PB” value ([3]; +0.06 μg/ml polymyxin B, 1st experiment) was 1.00 µg/mL. The “MIC without PB/MIC + PB” value ([3]; ratio, PB 0.06 μg/ml, 1st experiment) was 2, the MIC ([3]; without PB) was 1 µg/mL and the “MIC without PB” value [3, 14] was 2 µg/mL. For the same substance, the MIC ([4]; +0.06 μg/ml PB, 2nd experiment) was 0.5 µg/mL, the “MIC without PB/MIC + PB” value ([4]; +0.06 μg/ml PB, 2nd experiment) was 2 and the MIC ([4]; without PB, 2nd experiment) was 1 µg/mL. The “MIC without PB” value [4, 14] was 1 µg/mL, the MBC ([5]; A baumannii A 401, +0.06 μg/ml PB) was 1 µg/mL and the “MBC +0.06 μg/ml PB” value ([5]; A baumannii A 401, +0.06 μg/ml polymyxin B, 1st experiment) was 1.00 µg/mL. For the same substance, the MBC ([5]; A baumannii A 401, without PB) was 1 µg/mL, the “MBC without PB” value ([5]; A baumannii A 401, without polymyxin B, 1st experiment) was 1 µg/mL and the MBC ([6]; +[…] PB) was 0.25 µg/mL. The “MBC +[…] PB” value [6, 15] was 1 µg/mL, the MBC ([6]; without PB) was 2 µg/mL and the “MBC without PB” value [6, 14] was 1 µg/mL. For the same substance, the MIC ([7]; +[…] PB) was 0.5 µg/mL, the “MIC without PB/MIC + PB” value ([7]; +[…] PB) was 4 and the MIC ([7]; without PB) was 2 µg/mL. The “MBC +0.06 μg/ml PB” value ([8]; +0.06 μg/ml polymyxin B) was 2.00 µg/mL, the “MBC without PB” value ([8]; without polymyxin B) was 2 µg/mL and the MIC ([9]; +[…] PB) was 0.5 µg/mL. For the same substance, the “MIC +[…] PB” value [9, 15] was 0.5 µg/mL, the “MIC without PB/MIC + PB” value ([9]; ratio, PB […], 1st experiment) was 2 and the MIC ([9]; without PB) was 1 µg/mL. The “MIC without PB” value [9, 14] was 1 µg/mL, the MBC ([10]; +[…] PB) was 0.5 µg/mL and the “MBC +[…] PB” value [10, 15] was 0.25 µg/mL. For the same substance, the MBC ([10]; without PB) was 1 µg/mL, the “MBC without PB” value [10, 14] was 1 µg/mL and the “Change of activity (MIC) in presence of polymyxin B compared to without polymyxin B” value [11] was “less potentiated”. The “Range ratios MIC without PB/MIC with PB Oct. 1, 2008 n = 8” value ([11]; 1st experiment) was 1-8, the “MIC range with PB (0.25x MIC) Oct. 1, 2008 n = 8” value ([11]; 1st experiment, […] polymyxin B, ATCC 19606, A329, A390 and A473 not taken) was 0.5 to 8 µg/mL and the “Range ratios MIC without PB/MIC with PB Oct. 14, 2008 n = 11” value ([11]; 2nd experiment) was 1-8. For the same substance, the “MIC range with PB (0.25x MIC) Oct. 14, 2008 n = 11” value ([11]; 2nd experiment, 0.06 μg/ml polymyxin B, all strains except the ATCC strain) was 0.25 to 2 µg/mL, the MIC [12] was 2 µg/mL and the “MIC without PB/MIC + PB” value [12] was 1.
